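Following 48 hours of exposure in 96-well plates, responses at five concentrations were used to interpolate endpoints linearly. GI50 marks 50% less growth. At the TGI there is no net growth.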
Columns and labels:
Assay in all cases: NCI anticancer screen, dose series, 48 h
786-0 renal = system: 786-0 renal
A549 NSCLC = system: A549 NSCLC
ACHN renal = system: ACHN renal
BT-549 breast = system: BT-549 breast
CAKI-1 renal = system: CAKI-1 renal
COLO 205 colon = system: COLO 205 colon
DU-145 prostate = system: DU-145 prostate
EKVX NSCLC = system: EKVX NSCLC
HCC-2998 colon = system: HCC-2998 colon
HCT-116 colon = system: HCT-116 colon
HCT-15 colon = system: HCT-15 colon
HOP-62 NSCLC = system: HOP-62 NSCLC
HOP-92 NSCLC = system: HOP-92 NSCLC
HS 578T breast = system: HS 578T breast
IGROV1 ovarian = system: IGROV1 ovarian
K-562 leukemia = system: K-562 leukemia
KM12 colon = system: KM12 colon
LOX IMVI melanoma = system: LOX IMVI melanoma
M14 melanoma = system: M14 melanoma
MDA-MB-231 breast = system: MDA-MB-231 breast
MDA-MB-435 = system: MDA-MB-435
NCI-H460 lung = system: NCI-H460 lung
NCI-H522 lung = system: NCI-H522 lung
NCI/ADR-RES ovarian = system: NCI/ADR-RES ovarian
OVCAR-3 ovarian = system: OVCAR-3 ovarian
OVCAR-4 ovarian = system: OVCAR-4 ovarian
OVCAR-5 ovarian = system: OVCAR-5 ovarian
OVCAR-8 ovarian = system: OVCAR-8 ovarian
PC-3 prostate = system: PC-3 prostate
RPMI-8226 leukemia = system: RPMI-8226 leukemia
RXF 393 renal = system: RXF 393 renal
SF-295 CNS = system: SF-295 CNS
SK-MEL-2 melanoma = system: SK-MEL-2 melanoma
SK-MEL-28 melanoma = system: SK-MEL-28 melanoma
SK-MEL-5 melanoma = system: SK-MEL-5 melanoma
SK-OV-3 ovarian = system: SK-OV-3 ovarian
SN12C renal = system: SN12C renal
SNB-19 CNS = system: SNB-19 CNS
SNB-75 CNS = system: SNB-75 CNS
SW-620 colon = system: SW-620 colon
TK-10 renal = system: TK-10 renal
U251 CNS = system: U251 CNS
UACC-62 melanoma = system: UACC-62 melanoma
UO-31 renal = system: UO-31 renal
A498 renal = system: A498 renal
CCRF-CEM leukemia = system: CCRF-CEM leukemia
SR leukemia = system: SR leukemia

SMILES: COc1cc2c(c(OC)c1OC)-c1ncc3c(OC)c(OC)c(OC)cc3c1C2
- GI50 (786-0 renal): 36.5 µM
- TGI (786-0 renal): > 100 µM
- GI50 (A549 NSCLC): 27.7 µM
- TGI (A549 NSCLC): > 100 µM
- GI50 (ACHN renal): 31.2 µM
- TGI (ACHN renal): > 100 µM
- GI50 (BT-549 breast): 25.4 µM
- TGI (BT-549 breast): 55.2 µM
- GI50 (CAKI-1 renal): 23.9 µM
- TGI (CAKI-1 renal): 83.5 µM
- GI50 (COLO 205 colon): 19.9 µM
- TGI (COLO 205 colon): 38.2 µM
- GI50 (DU-145 prostate): 29.6 µM
- TGI (DU-145 prostate): > 100 µM
- GI50 (EKVX NSCLC): 32.7 µM
- TGI (EKVX NSCLC): > 100 µM
- GI50 (HCC-2998 colon): 16.1 µM
- TGI (HCC-2998 colon): 30.7 µM
- GI50 (HCT-116 colon): 27.8 µM
- TGI (HCT-116 colon): > 100 µM
- GI50 (HCT-15 colon): 28.6 µM
- TGI (HCT-15 colon): > 100 µM
- GI50 (HOP-62 NSCLC): 28.5 µM
- TGI (HOP-62 NSCLC): 86 µM
- GI50 (HOP-92 NSCLC): 52.1 µM
- TGI (HOP-92 NSCLC): > 100 µM
- GI50 (HS 578T breast): 29.9 µM
- TGI (HS 578T breast): 67.3 µM
- GI50 (IGROV1 ovarian): 34.1 µM
- TGI (IGROV1 ovarian): 93 µM
- GI50 (K-562 leukemia): 19.2 µM
- TGI (K-562 leukemia): 50.3 µM
- GI50 (KM12 colon): 16.1 µM
- TGI (KM12 colon): 40.4 µM
- GI50 (LOX IMVI melanoma): 16.2 µM
- TGI (LOX IMVI melanoma): 32.3 µM
- GI50 (M14 melanoma): 39.8 µM
- TGI (M14 melanoma): > 100 µM
- GI50 (MDA-MB-231 breast): 26.2 µM
- TGI (MDA-MB-231 breast): 86.8 µM
- GI50 (MDA-MB-435): 23 µM
- TGI (MDA-MB-435): 73.5 µM
- GI50 (NCI-H460 lung): 32.6 µM
- TGI (NCI-H460 lung): > 100 µM
- GI50 (NCI-H522 lung): 19.3 µM
- TGI (NCI-H522 lung): 48.3 µM
- GI50 (NCI/ADR-RES ovarian): 15.6 µM
- TGI (NCI/ADR-RES ovarian): 38 µM
- GI50 (OVCAR-3 ovarian): 21.5 µM
- TGI (OVCAR-3 ovarian): 50.9 µM
- GI50 (OVCAR-4 ovarian): 49.6 µM
- TGI (OVCAR-4 ovarian): > 100 µM
- GI50 (OVCAR-5 ovarian): 17.4 µM
- TGI (OVCAR-5 ovarian): 77.9 µM
- GI50 (OVCAR-8 ovarian): 18.9 µM
- TGI (OVCAR-8 ovarian): 58.2 µM
- GI50 (PC-3 prostate): 33.7 µM
- TGI (PC-3 prostate): > 100 µM
- GI50 (RPMI-8226 leukemia): 19 µM
- TGI (RPMI-8226 leukemia): 54.9 µM
- GI50 (RXF 393 renal): 25.2 µM
- TGI (RXF 393 renal): 83.2 µM
- GI50 (SF-295 CNS): 22 µM
- TGI (SF-295 CNS): 47.1 µM
- GI50 (SK-MEL-2 melanoma): 30.8 µM
- TGI (SK-MEL-2 melanoma): 74.4 µM
- GI50 (SK-MEL-28 melanoma): 34.9 µM
- TGI (SK-MEL-28 melanoma): > 100 µM
- GI50 (SK-MEL-5 melanoma): 16 µM
- TGI (SK-MEL-5 melanoma): 30.5 µM
- GI50 (SK-OV-3 ovarian): 29.5 µM
- TGI (SK-OV-3 ovarian): 74.9 µM
- GI50 (SN12C renal): 20.3 µM
- TGI (SN12C renal): 64.8 µM
- GI50 (SNB-19 CNS): 40.1 µM
- TGI (SNB-19 CNS): > 100 µM
- GI50 (SNB-75 CNS): > 100 µM
- TGI (SNB-75 CNS): > 100 µM
- GI50 (SW-620 colon): 37 µM
- TGI (SW-620 colon): > 100 µM
- GI50 (TK-10 renal): 22.5 µM
- TGI (TK-10 renal): 63.5 µM
- GI50 (U251 CNS): 36.9 µM
- TGI (U251 CNS): > 100 µM
- GI50 (UACC-62 melanoma): 21.1 µM
- TGI (UACC-62 melanoma): 49.3 µM
- GI50 (UO-31 renal): 18 µM
- TGI (UO-31 renal): 47.2 µM

SMILES: CCOC(=O)c1sc(-c2ccc(OS(=O)(=O)c3ccccc3[N+](=O)[O-])c(C=O)c2)nc1C
- GI50 (A498 renal): 0.532 µM
- TGI (A498 renal): 7.57 µM
- GI50 (CCRF-CEM leukemia): 1.83 µM
- TGI (CCRF-CEM leukemia): 4.49 µM
- GI50 (DU-145 prostate): 3.24 µM
- TGI (DU-145 prostate): > 100 µM
- GI50 (HOP-92 NSCLC): 1.92 µM
- TGI (HOP-92 NSCLC): 5.5 µM
- GI50 (HS 578T breast): 2.99 µM
- TGI (HS 578T breast): > 100 µM
- GI50 (K-562 leukemia): 1.61 µM
- TGI (K-562 leukemia): > 100 µM
- GI50 (RXF 393 renal): 1.62 µM
- TGI (RXF 393 renal): 5.77 µM
- GI50 (SNB-75 CNS): 1.37 µM
- TGI (SNB-75 CNS): 8.44 µM
- GI50 (SR leukemia): 1.96 µM
- TGI (SR leukemia): > 100 µM
- GI50 (UO-31 renal): 2.36 µM
- TGI (UO-31 renal): > 100 µM

Reference: PubChem BioAssay (NCI)
